The target of the assay is T1, Tau-Synaptogyrin3 interaction (Homo sapiens, UniProt O43761+P10636).
T1 construct: expressed in transfected cells
As to the kind of experiment: Cell-based split luciferase (NanoBit) protein complementary assay for Tau-Synaptogyrin3 interaction in stable cell line HEK293T-TK252-1E2. The settings on record: HEK293T-TK252-1E2 cells, 48 hrs compound treatment, L/F value (luciferase activity/fluorescent intensity) compared to DMSO control. The protocol: Live cell luciferase assay: Live cell luciferase activity was measured using NanoGlo® Live Cell Assay System (Cat# N2012. Promega, WI, USA), according to manufacturer's instruction. All microplate-based measurement was performed with BioTek Synergy H1 (Agilent. CA, USA).
For producing HEK293T-TK252 stable cell line for screening, BglII-linearized pTK252 was transfected to HEK293T cells. After 24 hrs transfection, the transfected cells were cultured in the culture media containing 1 µg/ml puromycin (10 mM in DMSO, Cat# J61278/ Alfa Aesar. ThermoFisher Korea, Seoul, Korea) for 9 days. Regular media change was performed in every 3 days with fresh puromycin of indicating concentration during the whole selection period. The selected cells were trypsinized and diluted to 5 cells/ml and seeded to 4x 96 well cell culture plates (100 µl/well), and cultured with the cell culture media containing 1 µg/ml puromycin for 11 days. 18 wells that contained only GFP-positive cells were selected for expansion, and cultured with the cell culture media containing 0.1-0.2 µg/ml puromycin for 14 days. 10 clones were discarded during the expansion due to emerging of non-GFP cells, and 8 clones were validated. The selected clone (1E2) was cultured with the cell culture media containing 0.5 µg/ml puromycin for further experiments.
3 µmol of 1,728 compounds were purchased from Otava Chemicals MB (Vilniaus, Lithuania), dissolved into 300 µl DMSO (10 mM) and stored at -80°C. 4x10^4 HEK293T-TK252-1E2 cells were seeded with 100 µl of the cell culture media into 96 white well cell culture plates (Cat# 30196. SPL, Seoul, Korea), 48 hrs prior to compound treatment. For 10 µM compound treatment, 10 mM compound stock was diluted to 50 µM with the cell culture media, and 25 µl of the diluted compound was added to the designated wells of the 96 well plates. For dose-response experiments, the amount of compounds for dilution was adjusted to fit the volume indicated above. After 48 hrs compound treatment, the cells were washed once with OptiMEM and live cell luciferase activity, fluorescent intensity and fluorescence area scan was measured.
1,728 compounds were treated at 10 µM to HEK293T-TK252-1E2 cells and incubated for 48 hrs. […] Single wash step with culture media without FBS was included before measurement to discard dead cells and to remove FBS that affects luciferase assay. […] Fluorescent intensity was taken for normalization, which is expected to be proportion to the cell number at the measuring point. L/F value which is luciferase activity normalized with fluorescent intensity (L/F = Luciferase activity/ Fluorescent intensity) was calculated for all measurements and compared to L/F value of DMSO controls to calculated the size of inhibitory effect. […] Fluorescence area scan (FA) performed right after luciferase activity and fluorescent intensity measurement, to validate total remaining fluorescent cells in a well as a proxy to the cellular toxicity. FA value was in proportion to WST assay results (data not shown), and average CV of triplicates of all measurements was 0.04.
61 compounds were further tested for dose-response profile, based on inhibitory effect that was measured by L/F value (<60%) and FA-based cell viability (>90%) at 10 µM compared to DMSO control. 10 compounds were considered as hit compounds through three times of reproduction.

Our source for the IC50 values is patent EP4682146A1, “COMPOSITION INCLUDING NOVEL PYRIDOINDOLE DERIVATIVE COMPOUND AS ACTIVE INGREDIENT FOR PREVENTION OR TREATMENT OF NEURODEGENERATIVE DISEASES” (Neurotarge Co., Ltd., priority 2023, dated 2024).

T1 sequence (P10636 1-441 isoform P10636-8): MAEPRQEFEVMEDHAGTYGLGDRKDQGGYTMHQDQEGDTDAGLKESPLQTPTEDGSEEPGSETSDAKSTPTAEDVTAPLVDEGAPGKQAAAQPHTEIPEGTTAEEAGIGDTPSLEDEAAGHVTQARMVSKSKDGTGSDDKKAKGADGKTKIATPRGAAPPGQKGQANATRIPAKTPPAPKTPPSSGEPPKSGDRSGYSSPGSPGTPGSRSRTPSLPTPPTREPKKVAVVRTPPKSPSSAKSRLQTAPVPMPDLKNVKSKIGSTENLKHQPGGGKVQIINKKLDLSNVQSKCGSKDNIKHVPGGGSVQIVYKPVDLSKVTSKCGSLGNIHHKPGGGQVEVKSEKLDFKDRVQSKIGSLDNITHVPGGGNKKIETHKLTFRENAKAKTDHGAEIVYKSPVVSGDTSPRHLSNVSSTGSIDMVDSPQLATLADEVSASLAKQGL
T1 sequence (O43761 whole entry): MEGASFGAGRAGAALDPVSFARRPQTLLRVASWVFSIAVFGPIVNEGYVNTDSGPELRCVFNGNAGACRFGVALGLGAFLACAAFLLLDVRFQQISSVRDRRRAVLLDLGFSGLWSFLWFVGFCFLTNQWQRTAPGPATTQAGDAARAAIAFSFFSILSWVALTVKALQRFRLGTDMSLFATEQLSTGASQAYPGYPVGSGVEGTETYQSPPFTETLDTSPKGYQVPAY

Usually IC50 stands for the midpoint of a concentration-inhibition curve. Regarding `O=C(c1cccnc1)N1CCc2[nH]c3ccc(-c4ccccc4)cc3c2C1` [Formula 2, (8-phenyl-1,3,4,5-tetrahydro-2H-pyrido[4,3-b]indol-2-yl)(pyridin-3-yl)methanone], the half-inhibitory concentration (IC50) lay in the range of 3 to 12 µM.
Next, `O=C(c1ccncc1)N1CCc2[nH]c3ccc(-c4ccccc4)cc3c2C1` [Formula 3]: 3 to 12 µM; `Cc1cncc(C(=O)N2CCc3[nH]c4ccc(-c5ccccc5)cc4c3C2)c1` [Formula 4, (5-methylpyridin-3-yl)(8-phenyl-1,3,4,5-tetrahydro-2H-pyrido[4,3-b]indol-2-yl)methanone]: 3 to 12 µM.
Take `Cc1ccc(C(=O)N2CCc3[nH]c4ccc(-c5ccccc5)cc4c3C2)cn1` [Formula 5, (6-methylpyridin-3-yl)(8-phenyl-1,3,4,5-tetrahydro-2H-pyrido[4,3-b]indol-2-yl)methanone]: the IC50 lay within 3 to 12 µM.
For the molecule `Cc1cnc(C(=O)N2CCc3[nH]c4ccc(-c5ccccc5)cc4c3C2)cn1` [Formula 6, (5-methylpyrazin-2-yl)(8-phenyl-1,3,4,5-tetrahydro-2H-pyrido[4,3-b]indol-2-yl)methanone], the IC50 fell in the range of 12 to 25 µM.
The value for `O=C(c1cnccn1)N1CCc2[nH]c3ccc(-c4ccccc4)cc3c2C1` [Formula 7, (8-phenyl-1,3,4,5-tetrahydro-2H-pyrido[4,3-b]indol-2-yl)(pyrazin-2-yl)methanone] was 3 to 12 µM; that for `O=C(c1cncnc1)N1CCc2[nH]c3ccc(-c4ccccc4)cc3c2C1` [Formula 8, (8-phenyl-1,3,4,5-tetrahydro-2H-pyrido[4,3-b]indol-2-yl)(pyrimidin-5-yl)methanone] was 3 to 12 µM.
For the molecule `O=C(c1ccccc1)N1CCc2[nH]c3ccc(-c4ccccc4)cc3c2C1` [Formula 9, Phenyl(8-phenyl-1,3,4,5-tetrahydro-2H-pyrido[4,3-b]indol-2-yl)methanone], the 50% inhibitory concentration (IC50) lay within 3 to 12 µM.
For the molecule `Cn1ccc2c(C(=O)N3CCc4[nH]c5ccc(-c6ccccc6)cc5c4C3)cccc21` [Formula 10, (1-methyl-1H-indol-4-yl)(8-phenyl-1,3,4,5-tetrahydro-2H-pyrido[4,3-b]indol-2-yl)methanone], the IC50 was 3 to 12 µM.
Next, `O=C(c1nccs1)N1CCc2[nH]c3ccc(-c4ccccc4)cc3c2C1` [Formula 11, (8-phenyl-1,3,4,5-tetrahydro-2H-pyrido[4,3-b]indol-2-yl)(thiazol-2-yl)methanone]: 3 to 12 µM.
On to `O=C(c1ccc(C(F)(F)F)cc1)N1CCc2[nH]c3ccc(-c4ccccc4)cc3c2C1` [Formula 12, (8-phenyl-1,3,4,5-tetrahydro-2H-pyrido[4,3-b]indol-2-yl)(4-(trifluoromethyl)phenyl)methanone], for which the IC50 fell in the range of 12 to 25 µM.
Take `O=C(c1cccc(Cl)c1)N1CCc2[nH]c3ccc(-c4ccccc4)cc3c2C1` [Formula 13, (3-chlorophenyl)(8-phenyl-1,3,4,5-tetrahydro-2H-pyrido[4,3-b]indol-2-yl)methanone]: the IC50 was in the range of 12 to 25 µM.
For `Cc1ccc(C(=O)N2CCc3[nH]c4ccc(-c5ccccc5)cc4c3C2)cc1` [Formula 14, (8-phenyl-1,3,4,5-tetrahydro-2H-pyrido[4,3-b]indol-2-yl)(p-tolyl)methanone], the IC50 was less than 3 µM.
The value for `Cc1cccc(C(=O)N2CCc3[nH]c4ccc(-c5ccccc5)cc4c3C2)c1` [Formula 15, (8-phenyl-1,3,4,5-tetrahydro-2H-pyrido[4,3-b]indol-2-yl)(m-tolyl)methanone] was 3 to 12 µM; that for `CCc1ccc(C(=O)N2CCc3[nH]c4ccc(-c5ccccc5)cc4c3C2)cc1` [Formula 16, (4-ethylphenyl)(8-phenyl-1,3,4,5-tetrahydro-2H-pyrido[4,3-b]indol-2-yl)methanone] was 3 to 12 µM.
Next, `COc1ccc(C(=O)N2CCc3[nH]c4ccc(-c5ccccc5)cc4c3C2)cc1` [Formula 17, (4-methoxyphenyl)(8-phenyl-1,3,4,5-tetrahydro-2H-pyrido[4,3-b]indol-2-yl)methanone]: 3 to 12 µM; `COc1cccc(C(=O)N2CCc3[nH]c4ccc(-c5ccccc5)cc4c3C2)c1` [Formula 18, (3-methoxyphenyl)(8-phenyl-1,3,4,5-tetrahydro-2H-pyrido[4,3-b]indol-2-yl)methanone]: 3 to 12 µM.
As for `O=C(N1CCOCC1)N1CCc2[nH]c3ccc(-c4ccccc4)cc3c2C1` [Formula 19, Morpholino(8-phenyl-1,3,4,5-tetrahydro-2H-pyrido[4,3-b]indol-2-yl)methanone], the half-maximal inhibitory concentration (IC50) fell in the range of 3 to 12 µM.
The value for `Cc1ccccc1-c1ccc2[nH]c3c(c2c1)CN(C(=O)c1cccnc1)CC3` [Formula 20, Pyridin-3-yl(8-(o-tolyl)-1,3,4,5-tetrahydro-2H-pyrido[4,3-b]indol-2-yl)methanone] was 3 to 12 µM.
The value for `Cc1ccccc1-c1ccc2[nH]c3c(c2c1)CN(C(=O)c1ccncc1)CC3` [Formula 21, Pyridin-4-yl(8-(o-tolyl)-1,3,4,5-tetrahydro-2H-pyrido[4,3-b]indol-2-yl)methanone] was 3 to 12 µM; that for `Cc1cncc(C(=O)N2CCc3[nH]c4ccc(-c5ccccc5C)cc4c3C2)c1` [Formula 22, (5-methylpyridin-3-yl)(8-(o-tolyl)-1,3,4,5-tetrahydro-2H-pyrido[4,3-b]indol-2-yl)methanone] was 3 to 12 µM.
Next, `Cc1ccccc1-c1ccc2[nH]c3c(c2c1)CN(C(=O)c1ccccc1)CC3` [Formula 23, Phenyl(8-(o-tolyl)-1,3,4,5-tetrahydro-2H-pyrido[4,3-b]indol-2-yl)methanone]: 3 to 12 µM; `Cc1ccccc1-c1ccc2[nH]c3c(c2c1)CN(C(=O)c1cccc2c1ccn2C)CC3` [Formula 24, (1-methyl-1H-indol-4-yl)(8-(o-tolyl)-1,3,4,5-tetrahydro-2H-pyrido[4,3-b]indol-2-yl)methanone]: 3 to 12 µM; `Cc1ccccc1-c1ccc2[nH]c3c(c2c1)CN(C(=O)c1nccs1)CC3` [Formula 25, Thiazol-2-yl(8-(o-tolyl)-1,3,4,5-tetrahydro-2H-pyrido[4,3-b]indol-2-yl)methanone]: 3 to 12 µM.
On to `Cc1ccccc1-c1ccc2[nH]c3c(c2c1)CN(C(=O)c1cccc(Cl)c1)CC3` [Formula 26, (3-chlorophenyl)(8-(o-tolyl)-1,3,4,5-tetrahydro-2H-pyrido[4,3-b]indol-2-yl)methanone], for which the IC50 lay within 12 to 25 µM.
Take `Cc1cccc(-c2ccc3[nH]c4c(c3c2)CN(C(=O)c2cccnc2)CC4)c1` [Formula 27, Pyridin-3-yl(8-(m-tolyl)-1,3,4,5-tetrahydro-2H-pyrido[4,3-b]indol-2-yl)methanone]: the IC50 was less than 3 µM.
`Cc1cccc(-c2ccc3[nH]c4c(c3c2)CN(C(=O)c2ccccc2)CC4)c1` [Formula 28, Phenyl(8-(m-tolyl)-1,3,4,5-tetrahydro-2H-pyrido[4,3-b]indol-2-yl)methanone]: the IC50 is less than 3 µM.
The value for `Cc1ccc(-c2ccc3[nH]c4c(c3c2)CN(C(=O)c2cccnc2)CC4)cc1` [Formula 29, Pyridin-3-yl(8-(p-tolyl)-1,3,4,5-tetrahydro-2H-pyrido[4,3-b]indol-2-yl)methanone] was less than 3 µM.
Next, `Cc1ccc(-c2ccc3[nH]c4c(c3c2)CN(C(=O)c2ccccc2)CC4)cc1` [Formula 30, Phenyl(8-(p-tolyl)-1,3,4,5-tetrahydro-2H-pyrido[4,3-b]indol-2-yl)methanone]: less than 3 µM; `O=C(c1cccnc1)N1CCc2[nH]c3ccc(-c4cccnc4)cc3c2C1` [Formula 31, Pyridin-3-yl(8-(pyridin-3-yl)-1,3,4,5-tetrahydro-2H-pyrido[4,3-b]indol-2-yl)methanone]: 12 to 25 µM.
The value for `O=C(c1cccnc1)N1CCc2[nH]c3ccc(Nc4ccc(Cl)cc4)cc3c2C1` [Formula 32, (8-((4-chlorophenyl)amino)-1,3,4,5-tetrahydro-2H-pyrido[4,3-b]indol-2-yl)(pyridin-3-yl)methanone] was less than 3 µM; that for `O=C(c1ccccc1)N1CCc2[nH]c3ccc(Nc4ccc(Cl)cc4)cc3c2C1` [Formula 33, (8-((4-chlorophenyl)amino)-1,3,4,5-tetrahydro-2H-pyrido[4,3-b]indol-2-yl)(phenyl)methanone] was 3 to 12 µM.
